Experimental findings from the supplement of paper PMC10307832 are described below.

Assay in all cases: relative viability (nuclei count vs DMSO), 5 days (fraction); higher = more cells survive
Compound in experiment [1]: COc1cc(Nc2c(C#N)cnc3cc(OCCCN4CCN(C)CC4)c(OC)cc23)c(Cl)cc1Cl [Bosutinib] + CC1(C)CCC(c2ccc(Cl)cc2)=C(CN2CCN(c3ccc(C(=O)NS(=O)(=O)c4ccc(N[C@H](CCN5CCOCC5)CSc5ccccc5)c(S(=O)(=O)C(F)(F)F)c4)cc3)CC2)C1 [Navitoclax] (partner 0.5 µM)
Put shortly:
(§1)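 Relative viability equals treated-well nuclei counts divided by vehicle-well nuclei counts. Counts came from 4× images of lung cancer cell lines grown in 1536-well plates for 5 days after pin-tool dosing on the day after seeding. Dosing used one drug alone or a fixed anchor-drug dose plus five library-drug doses (not always all listed) in √10 steps, and values are medians of duplicate plates.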

Compound in experiment [2]: COc1cc(Nc2c(C#N)cnc3cc(OCCCN4CCN(C)CC4)c(OC)cc23)c(Cl)cc1Cl [Bosutinib] + COc1cc2c(Oc3ccc(NC(=O)C4(C(=O)Nc5ccc(F)cc5)CC4)cc3F)ccnc2cc1OCCCN1CCOCC1 [Foretinib] (partner 0.25 µM)
The procedure, abridged: as §1

Compound in experiment [3]: COc1cc(Nc2c(C#N)cnc3cc(OCCCN4CCN(C)CC4)c(OC)cc23)c(Cl)cc1Cl [Bosutinib] + COc1cccc2cc(-c3nc([C@H]4CC[C@H](C(=O)O)CC4)n4ncnc(N)c34)[nH]c12 [OSI-027] (partner 0.5 µM)
The procedure, abridged: as §1

Compound in experiment [4]: COc1cc(Nc2c(C#N)cnc3cc(OCCCN4CCN(C)CC4)c(OC)cc23)c(Cl)cc1Cl [Bosutinib] + Cc1cc(Nc2cc(N3CCN(C)CC3)nc(Sc3ccc(NC(=O)C4CC4)cc3)n2)n[nH]1 [Tozasertib] (partner 0.1 µM)
Put shortly: as §1

Compound in experiment [5]: COc1cc(Nc2c(C#N)cnc3cc(OCCCN4CCN(C)CC4)c(OC)cc23)c(Cl)cc1Cl [Bosutinib] + Nc1nc2[nH]cc(CCc3ccc(C(=O)N[C@@H](CCC(=O)O)C(=O)O)cc3)c2c(=O)[nH]1 [Pemetrexed] (partner 0.2 µM)
Put shortly:
as §1

Consider 201T, for which the relative viability in experiment [1] (first compound 0.01 µM) was determined as 1.2; in experiment [1] (first compound 0.03162 µM), 1.2; in experiment [1] (first compound 0.1 µM) it was 1.2; in experiment [1] (first compound 1 µM) it was 1.14; in experiment [2] (first compound 0.01 µM), 1.08; in experiment [2] (first compound 0.03162 µM), 1.06. In addition, the relative viability came to 0.991 in experiment [2] (first compound 0.1 µM); 0.548 in experiment [2] (first compound 1 µM); 0.874 in experiment [3] (first compound 0.01 µM); 0.712 in experiment [3] (first compound 0.03162 µM); 0.725 in experiment [3] (first compound 0.1 µM); 0.633 in experiment [3] (first compound 1 µM). The relative viability came to 0.92 in experiment [4] (first compound 0.01 µM); 0.913 in experiment [4] (first compound 0.03162 µM); 0.951 in experiment [4] (first compound 0.1 µM); 0.713 in experiment [4] (first compound 1 µM); 0.283 in experiment [5] (first compound 0.01 µM); 0.302 in experiment [5] (first compound 0.03162 µM). Also, the relative viability in experiment [5] (first compound 0.1 µM) came to 0.324; in experiment [5] (first compound 1 µM), 0.369.

With A549, the relative viability was 1.2 in experiment [1] (first compound 0.01 µM); 1.26 in experiment [1] (first compound 0.03162 µM); 1.27 in experiment [1] (first compound 0.1 µM); 1.07 in experiment [1] (first compound 1 µM); 0.946 in experiment [2] (first compound 0.01 µM); 1 in experiment [2] (first compound 0.03162 µM). For the same cell line, the relative viability in experiment [2] (first compound 0.1 µM) is 0.92; in experiment [2] (first compound 1 µM), 0.908.

For the cell line A-427, the relative viability stood at 0.947 in experiment [1] (first compound 0.01 µM); 0.97 in experiment [1] (first compound 0.03162 µM); 1.05 in experiment [1] (first compound 0.1 µM); 0.888 in experiment [1] (first compound 1 µM); 1.02 in experiment [2] (first compound 0.01 µM); 1 in experiment [2] (first compound 0.03162 µM). Moreover, the relative viability in experiment [2] (first compound 0.1 µM) came out at 1.14; in experiment [2] (first compound 1 µM) it was 0.972; in experiment [3] (first compound 0.01 µM), 0.489; in experiment [3] (first compound 0.03162 µM) it was 0.498; in experiment [3] (first compound 0.1 µM) it was 0.553; in experiment [3] (first compound 1 µM), 0.48. Moreover, the relative viability in experiment [4] (first compound 0.01 µM) was 0.231; in experiment [4] (first compound 0.03162 µM), 0.227; in experiment [4] (first compound 0.1 µM) it was 0.217; in experiment [4] (first compound 1 µM), 0.194; in experiment [5] (first compound 0.01 µM), 1.01; in experiment [5] (first compound 0.03162 µM), 1.07. The relative viability in experiment [5] (first compound 0.1 µM) came to 1.02; in experiment [5] (first compound 1 µM), 1.01.

Consider ABC-1, for which the relative viability in experiment [2] (first compound 0.01 µM) is 0.902; in experiment [2] (first compound 0.03162 µM) it was 1.17; in experiment [2] (first compound 0.1 µM), 1.21; in experiment [2] (first compound 1 µM) it was 0.895; in experiment [3] (first compound 0.01 µM), 0.507; in experiment [3] (first compound 0.03162 µM) it was 0.471. Besides, the relative viability amounted to 0.432 in experiment [3] (first compound 0.1 µM); 0.577 in experiment [3] (first compound 1 µM); 0.217 in experiment [4] (first compound 0.01 µM); 0.168 in experiment [4] (first compound 0.03162 µM); 0.144 in experiment [4] (first compound 0.1 µM); 0.177 in experiment [4] (first compound 1 µM).

With BEN, the relative viability in experiment [1] (first compound 0.01 µM) was 0.0464; in experiment [1] (first compound 0.03162 µM), 0.0561; in experiment [1] (first compound 0.1 µM), 0.0932; in experiment [1] (first compound 1 µM), 0.0522; in experiment [2] (first compound 0.01 µM), 0.755; in experiment [2] (first compound 0.03162 µM), 0.637. Also, the relative viability in experiment [2] (first compound 0.1 µM) was 0.682; in experiment [2] (first compound 1 µM), 0.516; in experiment [3] (first compound 0.01 µM), 0.318; in experiment [3] (first compound 0.03162 µM), 0.313; in experiment [3] (first compound 0.1 µM) it was 0.294; in experiment [3] (first compound 1 µM) it was 0.261. The relative viability in experiment [4] (first compound 0.01 µM) is 0.499; in experiment [4] (first compound 0.03162 µM), 0.439; in experiment [4] (first compound 0.1 µM), 0.48; in experiment [4] (first compound 1 µM), 0.539; in experiment [5] (first compound 0.01 µM), 0.641; in experiment [5] (first compound 0.03162 µM), 0.772. The relative viability in experiment [5] (first compound 0.1 µM) amounted to 0.746; in experiment [5] (first compound 1 µM), 0.576.

On to CAL-12T, for which the relative viability was 1.23 in experiment [1] (first compound 0.01 µM); 1.16 in experiment [1] (first compound 0.03162 µM); 1.09 in experiment [1] (first compound 0.1 µM); 1.12 in experiment [1] (first compound 1 µM); 1.11 in experiment [2] (first compound 0.01 µM); 1.09 in experiment [2] (first compound 0.03162 µM). Besides, the relative viability in experiment [2] (first compound 0.1 µM) was determined as 1.11; in experiment [2] (first compound 1 µM) it was 0.834; in experiment [3] (first compound 0.01 µM), 0.735; in experiment [3] (first compound 0.03162 µM), 0.637; in experiment [3] (first compound 0.1 µM), 0.803; in experiment [3] (first compound 1 µM) it was 0.565. In addition, the relative viability in experiment [4] (first compound 0.01 µM) amounted to 0.32; in experiment [4] (first compound 0.03162 µM), 0.316; in experiment [4] (first compound 0.1 µM), 0.322; in experiment [4] (first compound 1 µM), 0.318; in experiment [5] (first compound 0.01 µM), 1.09; in experiment [5] (first compound 0.03162 µM), 1.26. Further, the results for the relative viability in experiment [5] (first compound 0.1 µM) and in experiment [5] (first compound 1 µM) were 1.29 and 1.18, respectively.

Regarding COR-L23, the relative viability in experiment [1] (first compound 0.01 µM) is 1.17; in experiment [1] (first compound 0.03162 µM), 1.06; in experiment [1] (first compound 0.1 µM), 0.959; in experiment [1] (first compound 1 µM), 1.06; in experiment [2] (first compound 0.01 µM), 1.04; in experiment [2] (first compound 0.03162 µM), 0.938. Moreover, the relative viability turned out to be 0.971 in experiment [2] (first compound 0.1 µM); 0.967 in experiment [2] (first compound 1 µM); 0.754 in experiment [3] (first compound 0.01 µM); 0.732 in experiment [3] (first compound 0.03162 µM); 0.75 in experiment [3] (first compound 0.1 µM); 0.778 in experiment [3] (first compound 1 µM). Besides, the relative viability came to 0.195 in experiment [4] (first compound 0.01 µM); 0.236 in experiment [4] (first compound 0.03162 µM); 0.194 in experiment [4] (first compound 0.1 µM); 0.198 in experiment [4] (first compound 1 µM); 0.2 in experiment [5] (first compound 0.01 µM); 0.205 in experiment [5] (first compound 0.03162 µM). Also, the figures for the relative viability in experiment [5] (first compound 0.1 µM) and in experiment [5] (first compound 1 µM) were 0.224 and 0.218, respectively.

Consider COR-L 105, for which the relative viability in experiment [1] (first compound 0.01 µM) was 0.808; in experiment [1] (first compound 0.03162 µM), 0.825; in experiment [1] (first compound 0.1 µM) it was 0.84; in experiment [1] (first compound 1 µM), 0.492; in experiment [2] (first compound 0.01 µM) it was 1.05; in experiment [2] (first compound 0.03162 µM) it was 1.05. The relative viability in experiment [2] (first compound 0.1 µM) stood at 0.895; in experiment [2] (first compound 1 µM), 0.844; in experiment [3] (first compound 0.01 µM) it was 0.623; in experiment [3] (first compound 0.03162 µM), 0.669; in experiment [3] (first compound 0.1 µM), 0.698; in experiment [3] (first compound 1 µM), 0.479. The relative viability in experiment [4] (first compound 0.01 µM) was determined as 0.344; in experiment [4] (first compound 0.03162 µM) it was 0.371; in experiment [4] (first compound 0.1 µM), 0.325; in experiment [4] (first compound 1 µM) it was 0.308; in experiment [5] (first compound 0.01 µM) it was 1.22; in experiment [5] (first compound 0.03162 µM), 1.1. Also, the relative viability in experiment [5] (first compound 0.1 µM) is 0.979; in experiment [5] (first compound 1 µM) it was 0.777.
